Measured values: patent publication US20090192308A1, “1,5-DIHYDRO-2H-PYRROL-2-ONE TRICYCLIC DERIVATIVES HAVING ANTI-INFECTIVE ACTIVITY” (CPC BIOTECH S. r.l., priority 2008, published 2009)
In brackets after ≈: the same amount, converted by molar mass. Entries after “also recorded” stand apart in the source; their conditions may differ.

Assays:
[1] = in vivo biological studies, cited from earlier work
[2] = test system: Acinetobacter baumannii MDR; assay: agar spot / disk diffusion plate method; assay type: cell-based; settings: spot 10 μl, inoculum 10^8 CFU/ml, (Io) and (Ir) 100 mM, average of three points
Description: (§1) The antimicrobial activity of the substances (Ii), (Il), (Im), (In), (Io), (Ip), (Iq), (Ir), (Is) was evaluated towards 11 clinically isolated Gram-negative and Gram-positive bacterial strains, mostly multi-antibiotic resistant (MDR), and towards two types of yeast of the genus Candida.
(§2) A plate method was used (agar spot method or disk diffusion assay—spot quantity 10 μl, bacterial inoculum 10^8 CFU/ml and DMSO negative control): the (Io) and (Ir) concentration used was 100 mM. The antimicrobial activity was evaluated by measuring the diameter of the microbial growth inhibition halo expressed in millimetres, the reported values being the average of three experimental points.

Escherichia coli = assay: agar spot / disk diffusion plate method; assay type: cell-based; settings: spot 10 μl, inoculum 10^8 CFU/ml, (Io) and (Ir) 100 mM, average of three points
Description: as §1, §2

[3] = test system: Pseudomonas aeruginosa MDR; assay: agar spot / disk diffusion plate method; assay type: cell-based; settings: spot 10 μl, inoculum 10^8 CFU/ml, (Io) and (Ir) 100 mM, average of three points
Description: as §1, §2

Candida parapsilosis = assay: agar spot / disk diffusion plate method; assay type: cell-based; settings: spot 10 μl, inoculum 10^8 CFU/ml, (Io) and (Ir) 100 mM, average of three points
Description: as §1, §2

Salmonella spp. = assay: agar spot / disk diffusion plate method; assay type: cell-based; settings: spot 10 μl, inoculum 10^8 CFU/ml, (Io) and (Ir) 100 mM, average of three points
Description: as §1, §2

[4] = test system: Staphylococcus aureus MRSA; assay: agar spot / disk diffusion plate method; assay type: cell-based; settings: spot 10 μl, inoculum 10^8 CFU/ml, (Io) and (Ir) 100 mM, average of three points
Description: as §1, §2

[5] = test system: Staphylococcus haemolyticus MDR; assay: agar spot / disk diffusion plate method; assay type: cell-based; settings: spot 10 μl, inoculum 10^8 CFU/ml, (Io) and (Ir) 100 mM, average of three points
Description: as §1, §2

Candida albicans = assay: agar spot / disk diffusion plate method; assay type: cell-based; settings: spot 10 μl, inoculum 10^8 CFU/ml, (Io) and (Ir) 100 mM, average of three points
Description: as §1, §2

[6] = compared with taurine and hypotaurine; cited from earlier work
[7] = test system: 11 clinically isolated Gram-negative and Gram-positive bacterial strains, mostly MDR, and two types of yeast of the genus Candida; assay: antimicrobial activity towards clinical isolates and yeasts (overall); assay type: cell-based; settings: pathogens resistant to β-lactam antibiotics or multi-drug resistant, and yeasts
Description: as §1, §2

[8] = test system: methicillin-resistant Staphylococcus aureus strain (MRSA); assay: MIC by microdilutions in broth; assay type: cell-based
Description: The minimum inhibitory concentration (MIC) of the substances (Io) and (Ir) towards the methicillin-resistant Staphylococcus aureus strain (MRSA) was then evaluated by the method of microdilutions in broth: it should be noted that Staphylococcus aureus (MRSA) is one of the main multi-resistant bacteria causing serious problems in hospitals. The measured MICs were 6.25 mmol/l and 1.56 mmol/l for (Io) and (Ir) respectively.

Klebsiella pneumonite = assay: agar spot / disk diffusion plate method; assay type: cell-based; settings: spot 10 μl, inoculum 10^8 CFU/ml, (Io) and (Ir) 100 mM, average of three points
Description: as §1, §2

Klebsiella oxytoca = assay: agar spot / disk diffusion plate method; assay type: cell-based; settings: spot 10 μl, inoculum 10^8 CFU/ml, (Io) and (Ir) 100 mM, average of three points
Description: as §1, §2

Enterococcus faecium MDR = assay: agar spot / disk diffusion plate method; assay type: cell-based; settings: spot 10 μl, inoculum 10^8 CFU/ml, (Io) and (Ir) 100 mM, average of three points
Description: as §1, §2

[9] = test system: Enterococcus faecalis MDR; assay: agar spot / disk diffusion plate method; assay type: cell-based; settings: spot 10 μl, inoculum 10^8 CFU/ml, (Io) and (Ir) 100 mM, average of three points
Description: as §1, §2

Serratia marcescens = assay: agar spot / disk diffusion plate method; assay type: cell-based; settings: spot 10 μl, inoculum 10^8 CFU/ml, (Io) and (Ir) 100 mM, average of three points
Description: as §1, §2

Structure (SMILES)	diameter of the microbial growth inhibition halo [2]	diameter of the microbial growth inhibition halo (Escherichia coli)	diameter of the microbial growth inhibition halo [3]	diameter of the microbial growth inhibition halo (Candida parapsilosis)	diameter of the microbial growth inhibition halo (Salmonella spp.)	diameter of the microbial growth inhibition halo [4]	diameter of the microbial growth inhibition halo [5]	diameter of the microbial growth inhibition halo (Candida albicans)	antibiotic activity (in words) [7]	other results
O=C1C2=C(SCCN2)C2CSCCN12 (stereo not drawn) [Ia, 3,4,7,8,10,10a-hexahydro-2H,5H-pyrrolo[2,1-c:3,4-b′]bis[1,4]thiazin-5-one, reference compound]	4 millimetres	<2 millimetres	<2 millimetres	5 millimetres	3 millimetres	4 millimetres	<2 millimetres	6 millimetres	–	antioxidant properties in vivo (in words) [1]: considerable antioxidant properties; toxicity in vivo (in words) ([1]; high doses): total non-toxicity even at high doses; antioxidant activity (in words) [6]: strong antioxidant activity
CN1CCSC2=C1C(=O)N1CCSCC21 (stereo not drawn) [Ii]	–	–	–	–	–	–	–	–	have shown antibiotic activity	–
CCN1CCSC2=C1C(=O)N1CCSCC21 (stereo not drawn) [Il]	–	–	–	–	–	–	–	–	have shown antibiotic activity	–
CCCN1CCSC2=C1C(=O)N1CCSCC21 (stereo not drawn) [Im]	–	–	–	–	–	–	–	–	have shown antibiotic activity	–
CC(C)N1CCSC2=C1C(=O)N1CCSCC21 (stereo not drawn) [In]	–	–	–	–	–	–	–	–	have shown antibiotic activity	–
CC(C)=CCN1CCSC2=C1C(=O)N1CCSCC21 (stereo not drawn) [Io]	11 millimetres	12 millimetres	11 millimetres	8 millimetres	10 millimetres	11.4 millimetres	13 millimetres	10 millimetres	have shown antibiotic activity	minimum inhibitory concentration (MIC) [8]: 6.25 mM (≈ 1850 µg/mL); diameter of the microbial growth inhibition halo (Klebsiella pneumonite): 10 millimetres; diameter of the microbial growth inhibition halo (Klebsiella oxytoca): 8.6 millimetres; diameter of the microbial growth inhibition halo (Enterococcus faecium MDR): 8 millimetres; diameter of the microbial growth inhibition halo [9]: 9 millimetres; diameter of the microbial growth inhibition halo (Serratia marcescens): 7 millimetres
O=C1C2=C(SCCN2Cc2ccccc2)C2CSCCN12 (stereo not drawn) [Ip]	–	–	–	–	–	–	–	–	have shown antibiotic activity	–
O=C1C2=C(SCCN2CCc2ccccc2)C2CSCCN12 (stereo not drawn) [Iq]	–	–	–	–	–	–	–	–	have shown antibiotic activity	–
CC(C)=CCC/C(C)=C/CN1CCSC2=C1C(=O)N1CCSCC21 (stereo not drawn) [Ir]	13 millimetres	12 millimetres	12 millimetres	9.8 millimetres	11 millimetres	18.6 millimetres	15 millimetres	13 millimetres	have shown antibiotic activity; also recorded: best activity characteristics for the widest spectrum; also recorded: excellent wide spectrum antibiotic activity	minimum inhibitory concentration (MIC) [8]: 1.56 mM (≈ 569 µg/mL); diameter of the microbial growth inhibition halo (Klebsiella pneumonite): 11.5 millimetres; diameter of the microbial growth inhibition halo (Klebsiella oxytoca): 9.8 millimetres; diameter of the microbial growth inhibition halo (Enterococcus faecium MDR): 14.3 millimetres; diameter of the microbial growth inhibition halo [9]: 13.7 millimetres; diameter of the microbial growth inhibition halo (Serratia marcescens): 11 millimetres
O=C1C2=C(SCCN2c2ccc(-c3ccccc3)cc2)C2CSCCN12 (stereo not drawn) [Is]	–	–	–	–	–	–	–	–	have shown antibiotic activity	–
